Results from the supplement of paper PMC9663587.

Tests used:
THZ531 = compound: CN(C)C/C=C/C(=O)Nc1ccc(C(=O)N2CCC[C@@H](Nc3ncc(Cl)c(-c4c[nH]c5ccccc45)n3)C2)cc1 [THZ531]; assay: GR value, 72 h; higher = faster growth (1 = untreated, <0 = killing);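 further: breast cancer and non-malignant breast epithelial lines, nine half-log doses, viable cells counted by Hoechst and LIVE/DEAD dye imaging versus time-zero plates and DMSO controls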
[1] = compound: CC(=O)c1c(C)c2cnc(Nc3ccc(N4CCNCC4)cn3)nc2n(C2CCCC2)c1=O; assay: as above
THZ1 [2] = compound: T1, CN(C)C/C=C/C(=O)Nc1ccc(C(=O)Nc2cccc(Nc3ncc(Cl)c(-c4c[nH]c5ccccc45)n3)c2)cc1 [THZ1]; assay: as above
Flavopiridol [3] = compound: T2, CN1CC[C@H](c2c(O)cc(O)c3c(=O)cc(-c4ccccc4Cl)oc23)[C@H](O)C1 [Flavopiridol]; assay: as above
[4] = compound: CC(=O)c1c(C)c2cnc(Nc3ccc(N4CCNCC4)cn3)nc2n(C2CCCC2)c1=O; assay: increase in dead-cell fraction, 72 h; higher = more death;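 further: breast cancer cell lines in 384-well plates, stained with Hoechst plus LIVE/DEAD far red dye and imaged, cells above an LDR intensity threshold counted dead, Hoechst-negative corpses included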
THZ1 [5] = compound: T1, THZ1; assay: as above
[6] = compound: CCN1CCN(Cc2ccc(Nc3ncc(F)c(-c4cc(F)c5nc(C)n(C(C)C)c5c4)n3)nc2)CC1; assay: as above
BSJ-03-123 = compound: CC(=O)c1c(C)c2cnc(Nc3ccc(N4CCN(CCOCCOCCOCCNC(=O)COc5cccc6c5C(=O)N(C5CCC(=O)NC5=O)C6=O)CC4)cn3)nc2n(C2CCCC2)c1=O [BSJ-03-123]; assay: as above
[7] = compound: CCc1cnn2c(NCc3ccc[n+]([O-])c3)cc(N3CCCC[C@H]3CCO)nc12; assay: as above
Flavopiridol [8] = compound: T2, Flavopiridol; assay: as above
LEE011/Ribociclib = compound: CN(C)C(=O)c1cc2cnc(Nc3ccc(N4CCNCC4)cn3)nc2n1C1CCCC1 [LEE011/Ribociclib]; assay: as above
Neratinib/HKI272 = compound: CCOc1cc2ncc(C#N)c(Nc3ccc(OCc4ccccn4)c(Cl)c3)c2cc1NC(=O)/C=C/CN(C)C [Neratinib/HKI272]; assay: as above

## AU565
THZ531; 0.0001 µM
  GR value: 0.925 GR
THZ531; 0.0003162 µM
  GR value: 0.936 GR
THZ531; 0.001 µM
  GR value: 0.948 GR
THZ531; 0.003162 µM
  GR value: 0.994 GR
THZ531; 0.01 µM
  GR value: 1.05 GR
THZ531; 0.03162 µM
  GR value: 0.786 GR
THZ531; 0.1 µM
  GR value: 0.0998 GR
THZ531; 0.3162 µM
  GR value: -0.343 GR
THZ531; 1 µM
  GR value: -0.521 GR
[1]; 0.0003162 µM
  GR value: 1.04 GR
[1]; 0.001 µM
  GR value: 1.05 GR
[1]; 0.003162 µM
  GR value: 1.01 GR
[1]; 0.01 µM
  GR value: 0.919 GR
[1]; 0.03162 µM
  GR value: 0.73 GR
[1]; 0.1 µM
  GR value: 0.579 GR
[1]; 0.3162 µM
  GR value: 0.39 GR
[1]; 1 µM
  GR value: 0.301 GR
[1]; 3.162 µM
  GR value: 0.154 GR
THZ1 [2]; 0.0001 µM
  GR value: 0.903 GR
THZ1 [2]; 0.0003162 µM
  GR value: 1.02 GR
THZ1 [2]; 0.001 µM
  GR value: 0.972 GR
THZ1 [2]; 0.003162 µM
  GR value: 0.84 GR
THZ1 [2]; 0.01 µM
  GR value: 0.797 GR
THZ1 [2]; 0.03162 µM
  GR value: 0.225 GR
THZ1 [2]; 0.1 µM
  GR value: -0.325 GR
THZ1 [2]; 0.3162 µM
  GR value: -0.547 GR
THZ1 [2]; 1 µM
  GR value: -0.653 GR
Flavopiridol [3]; 0.0001 µM
  GR value: 1.11 GR
Flavopiridol [3]; 0.0003162 µM
  GR value: 1.02 GR
Flavopiridol [3]; 0.001 µM
  GR value: 0.906 GR
Flavopiridol [3]; 0.003162 µM
  GR value: 0.852 GR
Flavopiridol [3]; 0.01 µM
  GR value: 1 GR
Flavopiridol [3]; 0.03162 µM
  GR value: 0.858 GR
Flavopiridol [3]; 0.1 µM
  GR value: 0.472 GR
Flavopiridol [3]; 0.3162 µM
  GR value: -0.198 GR
Flavopiridol [3]; 1 µM
  GR value: -0.69 GR
[4]; 0.0003162 µM
  increase in dead-cell fraction: -0.0036
[4]; 0.001 µM
  increase in dead-cell fraction: -0.0011
[4]; 0.003162 µM
  increase in dead-cell fraction: 0.0019
[4]; 0.01 µM
  increase in dead-cell fraction: -0.0007
[4]; 0.03162 µM
  increase in dead-cell fraction: 0.008
[4]; 0.1 µM
  increase in dead-cell fraction: 0.0139
[4]; 0.3162 µM
  increase in dead-cell fraction: 0.0209
[4]; 1 µM
  increase in dead-cell fraction: 0.0255
[4]; 3.162 µM
  increase in dead-cell fraction: 0.0446
THZ1 [5]; 0.0001 µM
  increase in dead-cell fraction: -0.0048
THZ1 [5]; 0.0003162 µM
  increase in dead-cell fraction: -0.0064
THZ1 [5]; 0.001 µM
  increase in dead-cell fraction: -0.0098
THZ1 [5]; 0.003162 µM
  increase in dead-cell fraction: -0.0018
THZ1 [5]; 0.01 µM
  increase in dead-cell fraction: 0.0038
THZ1 [5]; 0.03162 µM
  increase in dead-cell fraction: 0.0873
THZ1 [5]; 0.1 µM
  increase in dead-cell fraction: 0.262
THZ1 [5]; 0.3162 µM
  increase in dead-cell fraction: 0.48
THZ1 [5]; 1 µM
  increase in dead-cell fraction: 0.579
[6]; 0.001 µM
  increase in dead-cell fraction: 0.0076
[6]; 0.003162 µM
  increase in dead-cell fraction: 0.0065
[6]; 0.01 µM
  increase in dead-cell fraction: 0.0106
[6]; 0.03162 µM
  increase in dead-cell fraction: 0.0354
[6]; 0.1 µM
  increase in dead-cell fraction: 0.043
[6]; 0.3162 µM
  increase in dead-cell fraction: 0.0403
[6]; 1 µM
  increase in dead-cell fraction: 0.0369
[6]; 3.162 µM
  increase in dead-cell fraction: 0.0205
[6]; 10 µM
  increase in dead-cell fraction: 0.085
BSJ-03-123; 0.001 µM
  increase in dead-cell fraction: 0.0012
BSJ-03-123; 0.003162 µM
  increase in dead-cell fraction: -0.0066
BSJ-03-123; 0.01 µM
  increase in dead-cell fraction: 0.0069
BSJ-03-123; 0.03162 µM
  increase in dead-cell fraction: -0.0059
BSJ-03-123; 0.1 µM
  increase in dead-cell fraction: 0.0078
BSJ-03-123; 0.3162 µM
  increase in dead-cell fraction: 0.0057
BSJ-03-123; 1 µM
  increase in dead-cell fraction: 0.0399
BSJ-03-123; 3.162 µM
  increase in dead-cell fraction: 0.0336
BSJ-03-123; 10 µM
  increase in dead-cell fraction: 0.306
[7]; 0.0001 µM
  increase in dead-cell fraction: 0.0029
[7]; 0.0003162 µM
  increase in dead-cell fraction: 0.0001
[7]; 0.001 µM
  increase in dead-cell fraction: 0.0027
[7]; 0.003162 µM
  increase in dead-cell fraction: 0.0033
[7]; 0.01 µM
  increase in dead-cell fraction: 0.0437
[7]; 0.03162 µM
  increase in dead-cell fraction: 0.247
[7]; 0.1 µM
  increase in dead-cell fraction: 0.346
[7]; 0.3162 µM
  increase in dead-cell fraction: 0.315
[7]; 1 µM
  increase in dead-cell fraction: 0.345
Flavopiridol [8]; 0.0001 µM
  increase in dead-cell fraction: -0.0146
Flavopiridol [8]; 0.0003162 µM
  increase in dead-cell fraction: -0.004
Flavopiridol [8]; 0.001 µM
  increase in dead-cell fraction: 0.0124
Flavopiridol [8]; 0.003162 µM
  increase in dead-cell fraction: 0.0024
Flavopiridol [8]; 0.01 µM
  increase in dead-cell fraction: -0.0083
Flavopiridol [8]; 0.03162 µM
  increase in dead-cell fraction: 0.0121
Flavopiridol [8]; 0.1 µM
  increase in dead-cell fraction: 0.0266
Flavopiridol [8]; 0.3162 µM
  increase in dead-cell fraction: 0.262
Flavopiridol [8]; 1 µM
  increase in dead-cell fraction: 0.602
LEE011/Ribociclib; 0.001 µM
  increase in dead-cell fraction: -0.0067
LEE011/Ribociclib; 0.003162 µM
  increase in dead-cell fraction: -0.0027
LEE011/Ribociclib; 0.01 µM
  increase in dead-cell fraction: 0.0258
LEE011/Ribociclib; 0.03162 µM
  increase in dead-cell fraction: 0.0105
LEE011/Ribociclib; 0.1 µM
  increase in dead-cell fraction: 0.0143
LEE011/Ribociclib; 0.3162 µM
  increase in dead-cell fraction: 0.0331
LEE011/Ribociclib; 1 µM
  increase in dead-cell fraction: 0.0469
LEE011/Ribociclib; 3.162 µM
  increase in dead-cell fraction: 0.0463
LEE011/Ribociclib; 10 µM
  increase in dead-cell fraction: 0.0439
Neratinib/HKI272; 0.0003162 µM
  increase in dead-cell fraction: 0.0048
Neratinib/HKI272; 0.001 µM
  increase in dead-cell fraction: 0.0173
Neratinib/HKI272; 0.003162 µM
  increase in dead-cell fraction: 0.0398
Neratinib/HKI272; 0.01 µM
  increase in dead-cell fraction: 0.0858
Neratinib/HKI272; 0.03162 µM
  increase in dead-cell fraction: 0.16
Neratinib/HKI272; 0.1 µM
  increase in dead-cell fraction: 0.195
Neratinib/HKI272; 0.3162 µM
  increase in dead-cell fraction: 0.232
Neratinib/HKI272; 1 µM
  increase in dead-cell fraction: 0.206
Neratinib/HKI272; 3.162 µM
  increase in dead-cell fraction: 0.321
